EC50 data for one compound are collected here from US20140194392A1 (priority 2013, published 2014).

Structures are written as SMILES.

The subject of test [1] is Influenza A/TW/70066/09 (H1N1). The test can be described thus: microbe, parasite or virus in culture. The following applies: H1N1, read-out: EC50 on the inhibition of replication (viral plaque reduction assay). The test is classed as cell-based.
The test system of test [2] is Influenza A/TW/70058/09 (H1N1). The test can be described thus: microbe, parasite or virus in culture. The test is classed as cell-based. The settings on record: H1N1, read-out: EC50 on the inhibition of replication (viral plaque reduction assay).

In the case of `Nc1c(S(=O)(=O)O)cc(Nc2cccc(S(=O)(=O)CCOS(=O)(=O)O)c2)c2c1C(=O)c1ccccc1C2=O` [RB19, remazol brilliant blue R], the values for the 50% effective concentration (EC50) in test [1] and in test [2] were 11.9 µM and 9.8 µM, respectively.
